The values below come from ChEMBL document CHEMBL1201862, “PubChem BioAssay data set” (2004).

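Each compound was tested at five concentrations against cells in 96-well plates for 48 hours. Here, GI50 denotes the concentration required for 50% inhibition of growth.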 Activity calls are given as the source filed them. No stated cut-off is given here; in the data, active = GI50 up to about 1.1 µM and inactive = higher.

Among the test systems are OVCAR-4; UO-31; Malme-3M; SW-620; A498; SNB-75; HOP-92; SK-MEL-2; HCC 2998; HT-29; SR; BT-549; MCF7; SK-OV-3; NCI-H460; A549; K562; M14; MDA-MB-231; EKVX.
Assay in all cases: NCI tumour cell line growth inhibition, 48 h

For `Nc1nc(-c2cccs2)cs1`, the GI50 in the experiment on OVCAR-4 was > 100 µM (inactive); with UO-31 it was 54.6 µM (inactive); in the experiment with Malme-3M, > 100 µM (inactive); in the experiment on SW-620, > 100 µM (inactive); in the experiment on A498, > 100 µM (inactive); in the experiment on SNB-75, > 100 µM (inactive). In addition, the GI50 in the experiment with HOP-92 is 26.4 µM (inactive); in the experiment with SK-MEL-2, > 100 µM (inactive); with HCC 2998, 57.9 µM (inactive); in the experiment with HT-29, > 100 µM (inactive); in the experiment with SR, 69.5 µM (inactive); with BT-549, 95.5 µM (inactive). Further, the GI50 with MCF7 is 91.8 µM (inactive); in the experiment with SK-OV-3, > 100 µM (inactive); in the experiment on NCI-H460, 47.9 µM (inactive); with A549, 58.6 µM (inactive); in the experiment on K562, > 100 µM (inactive); in the experiment with M14, > 100 µM (inactive). Moreover, the GI50 was 60.4 µM (inactive) in the experiment on MDA-MB-231 and 43.3 µM (inactive) with EKVX.

As to `CNCCCNC(=S)Cn1cc(C)c(=O)[nH]c1=O`, the GI50 is > 53.2 µM (inactive) with OVCAR-4; > 48 µM (inactive) with UO-31; > 100 µM (inactive) in the experiment on Malme-3M; > 56.4 µM (inactive) with SW-620; > 55.6 µM (inactive) in the experiment with A498; > 54.2 µM (inactive) with SNB-75. Moreover, the GI50 in the experiment with HOP-92 is 34.4 µM (inactive); in the experiment with SK-MEL-2 it was > 45.2 µM (inactive); in the experiment with HCC 2998, > 52.6 µM (inactive); in the experiment with HT-29, > 35.9 µM (inactive); in the experiment on SR it was > 32.9 µM (inactive); in the experiment with BT-549, > 61.9 µM (inactive). Besides, the GI50 with MCF7 was > 31.8 µM (inactive); in the experiment with SK-OV-3, > 54.8 µM (inactive); in the experiment with NCI-H460 it was > 43 µM (inactive); with A549, > 29.9 µM (inactive); in the experiment on K562, > 42.2 µM (inactive); with M14, > 53 µM (inactive). For the same compound, the results for the GI50 with MDA-MB-231 and in the experiment with EKVX were > 60.4 µM (inactive) and > 60.8 µM (inactive), respectively.

Regarding `N#Cc1c(=O)c2cc([N+](=O)[O-])ccc2n2c1[nH]c1ccccc12`, the GI50 with OVCAR-4 was 3.38 µM (inactive); in the experiment on UO-31, 4.3 µM (inactive); with Malme-3M it was 8.89 µM (inactive); with SW-620, 8.71 µM (inactive); in the experiment on A498, 1.71 µM (inactive); in the experiment on SNB-75, 10.7 µM (inactive). For the same compound, the GI50 in the experiment with HOP-92 is 2.62 µM (inactive); in the experiment on SK-MEL-2, 5.25 µM (inactive); in the experiment on HCC 2998 it was 7.21 µM (inactive); in the experiment on HT-29, 8.09 µM (inactive); in the experiment on SR it was 10.7 µM (inactive); with BT-549, 9.08 µM (inactive). Also, the GI50 with MCF7 is 6.92 µM (inactive); in the experiment with SK-OV-3, 5.79 µM (inactive); in the experiment with NCI-H460, 4.99 µM (inactive); in the experiment with A549, 7.57 µM (inactive); with K562, 3.78 µM (inactive); in the experiment on M14 it was 7.96 µM (inactive). For the same compound, the results for the GI50 with MDA-MB-231 and in the experiment on EKVX were 4.76 µM (inactive) and 23.1 µM (inactive), respectively.

With `N#Cc1c(-c2ccc([N+](=O)[O-])cc2)cc(-c2ccc(Nc3ccnc4cc(C(F)(F)F)ccc34)cc2)nc1N`, the GI50 with OVCAR-4 is 7.6 µM (inactive); with UO-31, 14.7 µM (inactive); in the experiment with Malme-3M, 30.3 µM (inactive); in the experiment with SW-620 it was 8.3 µM (inactive); in the experiment on A498 it was > 48.3 µM (inactive); in the experiment on SNB-75, 20.4 µM (inactive). The GI50 with HOP-92 is 20.8 µM (inactive); in the experiment on SK-MEL-2, > 41.3 µM (inactive); in the experiment on HCC 2998 it was 14.1 µM (inactive); in the experiment on HT-29, 5.13 µM (inactive); in the experiment on SR, 1.79 µM (inactive); in the experiment on BT-549 it was 37.2 µM (inactive). Moreover, the GI50 in the experiment with MCF7 was 2.59 µM (inactive); in the experiment with SK-OV-3, 24 µM (inactive); with NCI-H460 it was 11.9 µM (inactive); in the experiment on A549 it was 13 µM (inactive); in the experiment with K562, 3.64 µM (inactive); with M14 it was 11.7 µM (inactive). For the same compound, the results for the GI50 in the experiment on MDA-MB-231 and with EKVX were 18.9 µM (inactive) and 36.1 µM (inactive), respectively.

For the compound `S=C(NN=C1NCCCCN1)Nc1ccc(Cl)cc1`, the GI50 in the experiment with OVCAR-4 was 38.9 µM (inactive); in the experiment with UO-31, 9.44 µM (inactive); in the experiment on Malme-3M, 17.1 µM (inactive); in the experiment on SW-620 it was 25.4 µM (inactive); with A498, 33 µM (inactive); in the experiment on SNB-75, 23.8 µM (inactive). The GI50 with HOP-92 was 29.8 µM (inactive); with SK-MEL-2 it was 22.3 µM (inactive); in the experiment on HCC 2998, 18.1 µM (inactive); in the experiment on HT-29, 16.2 µM (inactive); in the experiment with SR, 11.8 µM (inactive); with BT-549, 64.3 µM (inactive). Moreover, the GI50 is 34 µM (inactive) in the experiment with MCF7; 15.1 µM (inactive) in the experiment on SK-OV-3; 3.78 µM (inactive) in the experiment with NCI-H460; 11.8 µM (inactive) in the experiment with A549; 5.85 µM (inactive) in the experiment with K562; 8.09 µM (inactive) in the experiment on M14. Moreover, the values for the GI50 in the experiment on MDA-MB-231 and in the experiment on EKVX were 21 µM (inactive) and 31.9 µM (inactive), respectively.

For the compound `O=C(OC1C=C=CS(=O)(=O)CC#C/C=C\1)c1cnc2ccccc2n1` (stereo not given), the GI50 is > 100 µM (inactive) in the experiment on OVCAR-4; 76.6 µM (inactive) with UO-31; > 100 µM (inactive) with Malme-3M; 40.8 µM (inactive) in the experiment on SW-620; > 100 µM (inactive) in the experiment on A498; > 100 µM (inactive) with SNB-75. The GI50 in the experiment on HOP-92 was 12.7 µM (inactive); in the experiment with SK-MEL-2, > 100 µM (inactive); with HCC 2998, > 100 µM (inactive); in the experiment with HT-29, > 100 µM (inactive); in the experiment with SR, 68.9 µM (inactive); in the experiment on BT-549, > 100 µM (inactive). The GI50 was 27.5 µM (inactive) in the experiment with MCF7; > 100 µM (inactive) with SK-OV-3; > 100 µM (inactive) in the experiment with NCI-H460; > 100 µM (inactive) with A549; 61.4 µM (inactive) in the experiment with K562; > 100 µM (inactive) in the experiment on M14. Also, the GI50 with MDA-MB-231 was 28.8 µM (inactive); in the experiment on EKVX, 97.3 µM (inactive).

`O=C(O)CCc1nc2ccccc2[nH]1` [PROCODAZOLE]: the GI50 in the experiment with OVCAR-4, with UO-31, in the experiment on Malme-3M, in the experiment with SW-620, in the experiment on A498 and in the experiment with SNB-75 was > 100 µM (inactive) each time. Further, the GI50 with HOP-92, in the experiment with SK-MEL-2, in the experiment with HCC 2998, in the experiment with HT-29, in the experiment on SR and in the experiment on BT-549 was > 100 µM (inactive) each time. Further, the GI50 in the experiment on MCF7 was > 100 µM (inactive); in the experiment on SK-OV-3, 0.237 µM (active); in the experiment on NCI-H460, > 100 µM (inactive); in the experiment with A549, > 100 µM (inactive); with K562, > 100 µM (inactive); in the experiment with M14, > 100 µM (inactive). Further, the GI50 with MDA-MB-231 and with EKVX was > 100 µM (inactive) throughout.
